Assays:
Format in all cases: biochemical
PAD1 = target: T1, PAD1 (Homo sapiens, UniProt Q9ULC6); experiment: Inactivation kinetics, PAD1; details: for kinact/KI: a: single kobs determined, b: from a linear fit; for Fold PAD1 Selectivity: kinact/KI relative to least inhibited isozyme (1.0)
T1 construct: made in house
T1 sequence (Q9ULC6 1-663): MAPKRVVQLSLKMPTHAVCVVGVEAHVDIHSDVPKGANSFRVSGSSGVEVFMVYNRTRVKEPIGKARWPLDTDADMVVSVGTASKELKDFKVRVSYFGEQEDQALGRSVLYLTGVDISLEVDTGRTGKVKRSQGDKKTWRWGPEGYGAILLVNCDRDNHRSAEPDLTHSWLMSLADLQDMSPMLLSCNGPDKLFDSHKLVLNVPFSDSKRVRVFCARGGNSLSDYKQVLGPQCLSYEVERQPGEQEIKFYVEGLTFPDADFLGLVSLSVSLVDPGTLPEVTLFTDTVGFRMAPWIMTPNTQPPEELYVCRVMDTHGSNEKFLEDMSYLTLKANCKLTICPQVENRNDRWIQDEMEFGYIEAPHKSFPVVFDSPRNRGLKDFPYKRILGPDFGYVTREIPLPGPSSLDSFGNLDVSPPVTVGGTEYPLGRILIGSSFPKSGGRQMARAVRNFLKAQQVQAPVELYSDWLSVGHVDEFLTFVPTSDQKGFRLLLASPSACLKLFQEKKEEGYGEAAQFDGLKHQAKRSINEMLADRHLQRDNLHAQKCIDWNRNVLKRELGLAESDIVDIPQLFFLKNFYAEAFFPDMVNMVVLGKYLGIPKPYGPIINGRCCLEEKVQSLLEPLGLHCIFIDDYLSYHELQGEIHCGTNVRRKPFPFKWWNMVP
Method: (§1) Inactivation kinetic parameters were determined by incubating PAD1, 2, or 4 (2.0 μM) or PAD3 (5.0 μM) in a pre-warmed (10 min; 37° C.) inactivation mixture (50 mM HEPES, 10 mM CaCl2, and 2 mM DTT, pH 7.6, with a final volume of 60 μL) containing various concentrations of inhibitor. Aliquots were removed at various time points and added to a pre-warmed (10 min, 37° C.) reaction mixture (50 mM HEPES, 50 mM NaCl, 10 mM CaC2, 2 mM DTT, and 10 mM BAEE or 10 mM BAA in the case of PAD3; pH 7.6). After 15 min, reactions were quenched in liquid nitrogen and citrulline production quantified using the COLDER assay. […] In Vitro Labeling of PADs with “Clickable” Probes BB-F-Yne (5u), BB-Cl-Yne (5v) and BIFYne (5w)

PAD2 = target: T2, PAD2 (Homo sapiens, UniProt Q9Y2J8); experiment: Inactivation kinetics, PAD2; details: for kinact/KI: a: single kobs determined, b: from a linear fit, other footnotes: from kinact and KI; for Fold PAD2 Selectivity: kinact/KI relative to least inhibited isozyme (1.0)
T2 construct: made in house
Method: as §1

PAD4 = target: T3, PAD4 (Homo sapiens, UniProt Q9UM07); experiment: Inactivation kinetics, PAD4; details: for kinact/KI: a: single kobs determined, b: from a linear fit; for Fold PAD4 Selectivity: kinact/KI relative to least inhibited isozyme (1.0)
T3 construct: made in house
Method: as §1

PAD3 = target: T4, PAD3 (Homo sapiens, UniProt Q9ULW8); experiment: Inactivation kinetics, PAD3; details: for kinact/KI: a: single kobs determined; for Fold PAD3 Selectivity: kinact/KI relative to least inhibited isozyme (1.0)
T4 construct: made in house
T4 sequence (Q9ULW8 1-664): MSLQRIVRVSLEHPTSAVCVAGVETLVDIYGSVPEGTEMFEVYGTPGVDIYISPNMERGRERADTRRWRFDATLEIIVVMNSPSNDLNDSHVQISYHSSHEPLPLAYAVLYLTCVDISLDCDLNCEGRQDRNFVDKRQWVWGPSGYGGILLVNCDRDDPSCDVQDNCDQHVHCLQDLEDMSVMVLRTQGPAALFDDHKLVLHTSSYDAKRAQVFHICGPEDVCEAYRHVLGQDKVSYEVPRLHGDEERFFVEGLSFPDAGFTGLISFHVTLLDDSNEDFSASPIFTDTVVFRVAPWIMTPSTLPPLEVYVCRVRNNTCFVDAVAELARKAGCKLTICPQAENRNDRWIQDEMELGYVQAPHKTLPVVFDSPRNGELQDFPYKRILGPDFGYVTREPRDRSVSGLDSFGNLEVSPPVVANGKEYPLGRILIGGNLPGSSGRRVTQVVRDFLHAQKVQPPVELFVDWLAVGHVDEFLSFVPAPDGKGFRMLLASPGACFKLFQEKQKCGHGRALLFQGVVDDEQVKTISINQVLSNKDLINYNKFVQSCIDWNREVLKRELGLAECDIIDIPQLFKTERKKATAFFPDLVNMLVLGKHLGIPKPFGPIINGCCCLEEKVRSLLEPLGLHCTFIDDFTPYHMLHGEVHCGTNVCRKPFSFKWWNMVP
Method: as §1

T2 sequence (Q9Y2J8 whole entry): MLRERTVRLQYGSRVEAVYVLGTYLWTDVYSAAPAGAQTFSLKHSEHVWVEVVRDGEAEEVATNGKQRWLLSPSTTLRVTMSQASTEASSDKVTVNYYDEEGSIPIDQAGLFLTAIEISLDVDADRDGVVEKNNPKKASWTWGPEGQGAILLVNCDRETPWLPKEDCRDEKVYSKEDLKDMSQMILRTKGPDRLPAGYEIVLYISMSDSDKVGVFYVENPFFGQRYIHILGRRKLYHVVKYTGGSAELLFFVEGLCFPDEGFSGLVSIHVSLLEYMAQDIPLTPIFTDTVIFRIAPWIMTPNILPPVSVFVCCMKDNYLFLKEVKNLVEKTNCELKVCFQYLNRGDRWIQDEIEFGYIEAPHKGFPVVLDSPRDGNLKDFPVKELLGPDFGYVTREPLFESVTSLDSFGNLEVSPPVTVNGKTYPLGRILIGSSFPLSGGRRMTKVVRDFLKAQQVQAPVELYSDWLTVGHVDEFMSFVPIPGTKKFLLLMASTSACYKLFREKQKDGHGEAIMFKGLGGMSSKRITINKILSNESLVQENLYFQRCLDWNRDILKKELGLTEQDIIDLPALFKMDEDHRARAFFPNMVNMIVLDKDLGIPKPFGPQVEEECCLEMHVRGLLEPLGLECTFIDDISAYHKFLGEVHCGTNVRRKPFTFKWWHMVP
T3 sequence (Q9UM07 whole entry): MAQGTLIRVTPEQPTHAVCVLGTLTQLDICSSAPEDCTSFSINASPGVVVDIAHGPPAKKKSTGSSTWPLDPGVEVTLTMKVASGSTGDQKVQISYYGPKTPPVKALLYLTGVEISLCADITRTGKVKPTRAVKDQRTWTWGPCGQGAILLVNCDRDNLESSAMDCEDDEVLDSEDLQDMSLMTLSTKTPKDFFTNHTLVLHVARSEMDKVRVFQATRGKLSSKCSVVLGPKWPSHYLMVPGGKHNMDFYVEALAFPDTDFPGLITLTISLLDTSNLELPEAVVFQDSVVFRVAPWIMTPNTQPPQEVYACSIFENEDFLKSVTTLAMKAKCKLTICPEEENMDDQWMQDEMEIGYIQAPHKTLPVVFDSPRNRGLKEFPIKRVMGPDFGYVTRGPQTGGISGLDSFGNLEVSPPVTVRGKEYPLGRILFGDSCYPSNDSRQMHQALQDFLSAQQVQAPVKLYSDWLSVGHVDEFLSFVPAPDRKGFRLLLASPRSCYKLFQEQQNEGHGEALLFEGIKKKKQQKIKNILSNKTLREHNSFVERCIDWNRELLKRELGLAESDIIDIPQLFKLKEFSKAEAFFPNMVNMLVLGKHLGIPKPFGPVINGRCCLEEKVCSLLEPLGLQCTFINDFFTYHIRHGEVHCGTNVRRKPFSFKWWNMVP

Row | kinact/KI (PAD1) | Fold PAD1 Selectivity (PAD1) | Ki (PAD2; PAD2, table footnote) | kinact (PAD2; PAD2, table footnote) | kinact/KI (PAD2) | Fold PAD2 Selectivity (PAD2) | kinact/KI (PAD4) | Fold PAD4 Selectivity (PAD4) | kinact/KI (PAD3) | Fold PAD3 Selectivity (PAD3) | Structure (SMILES)
1 | 996 M⁻¹ s⁻¹ | 30 fold | 12.8 µM | 0.0455 s⁻¹ | 3540 M⁻¹ s⁻¹ | 106 fold | 38.3 M⁻¹ s⁻¹ | 1.1 fold | 33.5 M⁻¹ s⁻¹ | 1.0 fold | COc1cccc2c1nc([C@H](CCCNC(=N)CF)NC(=O)c1cccc3c1C(=O)N(C)C3)n2C [8a′]
2 | 719 M⁻¹ s⁻¹ | 6.8 fold |  |  | 1160 M⁻¹ s⁻¹ | 11 fold | 106 M⁻¹ s⁻¹ | 1.0 fold | 228 M⁻¹ s⁻¹ | 2.2 fold | COc1cccc2c1nc([C@H](CCCNC(=N)CCl)NC(=O)c1cccc3c1C(=O)N(C)C3)n2C [8b′]
3 | 75 M⁻¹ s⁻¹ | 9.5 fold |  |  | 7.92 M⁻¹ s⁻¹ | 1.0 fold | 142 M⁻¹ s⁻¹ | 18 fold | 15 M⁻¹ s⁻¹ | 1.9 fold | N=C(CF)NCCC[C@H](NC(=O)c1ccccc1)c1nc2ccccc2[nH]1 [Compound 5a, N1-benzoyl-N5-(2-fluoro-1-iminoethyl)-1-(1H-benzo[d]imidazol-2-yl)-L-ornithine]
4 | 132 M⁻¹ s⁻¹ | 16 fold |  |  | 8.33 M⁻¹ s⁻¹ | 1.0 fold | 254 M⁻¹ s⁻¹ | 31 fold | 163 M⁻¹ s⁻¹ | 20 fold | N=C(CCl)NCCC[C@H](NC(=O)c1ccccc1)c1nc2ccccc2[nH]1 [Compound 5b, N1-benzoyl-N5-(2-chloro-1-iminoethyl)-1-(1H-benzo[d]imidazol-2-yl)-L-ornithine]
5 | 25 M⁻¹ s⁻¹ | 1.9 fold |  |  | 13.1 M⁻¹ s⁻¹ | 1.0 fold | 108 M⁻¹ s⁻¹ | 8.3 fold | 46.7 M⁻¹ s⁻¹ | 3.6 fold | N=C(CF)NCCC[C@H](NC(=O)c1ccc2ccccc2c1)c1nc2ccccc2[nH]1 [Compound 5c]
6 | 46.7 M⁻¹ s⁻¹ | 1.0 fold |  |  | 71.2 M⁻¹ s⁻¹ | 1.5 fold | 167 M⁻¹ s⁻¹ | 3.6 fold | 165 M⁻¹ s⁻¹ | 3.5 fold | N=C(CCl)NCCC[C@H](NC(=O)c1ccc2ccccc2c1)c1nc2ccccc2[nH]1 [Compound 5d]
7 | 15 M⁻¹ s⁻¹ | 1.0 fold |  |  | 20 M⁻¹ s⁻¹ | 1.3 fold | 62.5 M⁻¹ s⁻¹ | 4.2 fold | 56.7 M⁻¹ s⁻¹ | 3.8 fold | N=C(CF)NCCC[C@H](NC(=O)c1ccc(-c2ccccc2)cc1)c1nc2ccccc2[nH]1 [Compound 5e, N1-[1,4′-Phenyl]benzol-N5-(2-fluoro-1-iminoethyl)-1-(1H-benzo[d]imidazol-2-yl)-L-ornithine]
8 | 21.3 M⁻¹ s⁻¹ | 2.8 fold |  |  | 13.7 M⁻¹ s⁻¹ | 1.8 fold | 7.5 M⁻¹ s⁻¹ | 1.0 fold | 26.7 M⁻¹ s⁻¹ | 3.6 fold | Cn1c([C@H](CCCNC(=N)CF)NC(=O)c2ccc(-c3ccccc3)cc2)nc2ccccc21 [Compound 5g, N1-[1,4′-Phenyl]benzoyl-N5-(2-fluoro-1-iminoethyl)-1-(1-methyl-benzo[d]imidazol-2-yl)-L-ornithine]
9 | 112 M⁻¹ s⁻¹ | 2.8 fold |  |  | 40.5 M⁻¹ s⁻¹ | 1.0 fold | 51.8 M⁻¹ s⁻¹ | 1.3 fold | 100 M⁻¹ s⁻¹ | 2.5 fold | Cn1c([C@H](CCCNC(=N)CCl)NC(=O)c2ccc(-c3ccccc3)cc2)nc2ccccc21 [Compound 5h, N1-[1,4′-Phenyl]benzol-N5-(2-chloro-1-iminoethyl)-1-(1-methyl-benzo[d]imidazol-2-yl)-L-ornithine]

Reference: US11208386B2, “Inhibitors of protein arginine deiminases (PADs) and methods of preparation and use thereof” (University of Massachusetts, priority 2016, dated 2021)
